Biological target: hSLC13A5 (Homo sapiens, UniProt Q86YT5)
Experiment: Recombinant hSLC13A5/14C-citrate uptake assay
Assay type: cell-based
Conditions: HEK293 Flp-In cells over-expressing hSLC13A5; WGA-PVT SPA beads; 14C-citrate approx. 2 μM; 4 h
Source text: (5) Recombinant hSLC13A5/^14C-Citrate Uptake Assay
The human embryonic kidney 293 (HEK 293)-Flp-In cells (293Flp-In-hSLC13A5) over-expressing hSLC13A5 transporter were cloned: The originating plasmid pcDNA3.1-hSLC13A5 containing hSLC13A5 was synthesized at GeneArt. The cDNA for hSLC13A5 was taken from this plasmid by means of PCR amplification using primers with added HindIII (N-terminal) and XhoI (C-terminal) restriction sites and sub-cloned in frame into pcDNA5/FRT from Invitrogen using the respective restriction enzymes. HEK293 Flp-In cells from Invitrogen were stably co-transfected using the pcDNA/FRT-hSLC13A5 plasmid as well as the pOG44 plasmid.
HEK 293-Flp-In cells are used that stably over-express hSLC13A5 transporter which is responsible for the uptake of citrate into these cells.
The uptake of ^14C-citrate into the 293Flp-In-hSLC13A5 cells is monitored using the WGA-PVT SPA (wheat germ agglutinin-polyvinyltoluene scintillation proximity assay) beads that bind to the 293Flp-In cells due to their WGA-PVT surface. This assay format is based on the imported radioactive citrate brought into proximity with the SPA beads by virtue of the biological processes within the cells. The radioactive decay is converted into a light signal that can be measured using e.g. the TopCount plate reader.
Method: ^14C-Citrate Uptake Assay
Test Compound Dilutions (2Fold-Concentrated):
Starting from 10 mM stock solutions in 100% DMSO, compounds are diluted in pure DMSO using the appropriate dilution steps.
Prior to the uptake assay, 200 μL assay medium (lx HBSS (with Ca^2+ and Mg^2+, w/o Phenolred), contains 5.56 mM D(+)-Glucose)+19.44 mM D(+)-Glucose (final concentration of D(+)-Glucose is 25 mM))+4.8 μL compound solution (or pure DMSO for non-inhibited control wells) are mixed (final DMSO concentration in the assay: 1% (v/v)).
After preparing the 2fold-concentrated test compound dilutions, 50 μL are pipetted to each well of white OptiPlates-96 and incubated at 37° C. in an incubator.
^14C-Citrate Working Solution (Volumes Required Per 96-Well):
The 293Flp-In-hSLC13A5 cells are cultivated in cell culture medium (DMEM+10% fetal calf serum+100 μg/mL Hygromycin B). The medium of the confluent cultures is discarded and the cells are washed with DPBS (w/o Mg^2+ w/o Ca^2+). The cells are detached by the addition of 2.0 mL Accumax per 75 cm^2 culture flask for up to 3 minutes at 37° C. and resuspended in 10 mL assay medium. After cell counting, 50,000 cells/well are administered in a volume of 50 μL into the white OptiPlates-96 containing the respective test compound concentrations. Following a 20 min incubation at 37° C. in the cell culture incubator, 20 μL of ^14C-citrate working solution is added to each well (final volume per well: 120 μL; final ^14C-citrate concentration: approx. 2 μM/well).
After incubation for 4 h at 37° C. in a humid cell culture incubator and the addition of 30 μL of WGA-PVT SPA beads to each well (0.25 mg/well), the plates are sealed on the top using a transparent plastic foil. Incubate the plates for 1 h by room temperature and gentle shaking.
After incubation, the plate is placed into the TopCount NXT HTS and the signal is recorded.
The performance of the test compounds is calculated as follows:
Wells containing cells incubated with 1% DMSO only deliver values for the non-inhibited ^14C-citrate uptake into 293Flp-In-hSLC13A5 cells (100% CTL). Wells containing cells which have received 30 mM non-labelled potassium citrate solution in addition to the ^14C-citrate working solution deliver values for the background (0% CTL).
The IC50 values of the compounds are calculated in IDBS XLfit by sigmoidal dose-response (variable slope).

hSLC13A5, sequence (Q86YT5 whole entry): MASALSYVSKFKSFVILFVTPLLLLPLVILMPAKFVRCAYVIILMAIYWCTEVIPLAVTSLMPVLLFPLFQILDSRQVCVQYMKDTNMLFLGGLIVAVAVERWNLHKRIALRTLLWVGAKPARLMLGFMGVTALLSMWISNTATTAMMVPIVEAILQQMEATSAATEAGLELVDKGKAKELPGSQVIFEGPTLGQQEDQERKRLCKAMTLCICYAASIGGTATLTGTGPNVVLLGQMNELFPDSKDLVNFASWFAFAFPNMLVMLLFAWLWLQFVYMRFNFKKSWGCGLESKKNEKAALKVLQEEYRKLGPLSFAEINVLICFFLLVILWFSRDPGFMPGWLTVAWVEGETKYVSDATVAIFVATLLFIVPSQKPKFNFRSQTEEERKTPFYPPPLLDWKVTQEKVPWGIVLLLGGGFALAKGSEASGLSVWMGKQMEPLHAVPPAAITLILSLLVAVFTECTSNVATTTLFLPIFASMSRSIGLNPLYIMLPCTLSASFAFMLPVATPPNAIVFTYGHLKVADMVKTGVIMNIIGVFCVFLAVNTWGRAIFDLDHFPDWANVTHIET

O=C(NCc1ccccc1F)C1CCN(S(=O)(=O)c2cc(Cl)cc(Cl)c2)CC1 [(I-2)]
IC50: 0.087 µM

O=C(NCc1ccc(Cl)cc1)C1CCN(S(=O)(=O)c2cc(Cl)cc(Cl)c2)CC1 [(I-5)]
IC50: 0.056 µM

O=C(NCc1ccc(F)cc1)C1CCN(S(=O)(=O)c2cc(Cl)cc(Cl)c2)CC1 [(I-10)]
IC50: 0.056 µM

O=C(NCc1ccccn1)C1CCN(S(=O)(=O)c2cc(Cl)cc(Cl)c2)CC1 [(I-11)]
IC50: 0.687 µM

Cc1ccc(CNC(=O)C2CCN(S(=O)(=O)c3cc(Cl)cc(Cl)c3)CC2)nc1 [(I-15)]
IC50: 0.193 µM

O=C(NCc1ccc(F)cn1)C1CCN(S(=O)(=O)c2cc(Cl)cc(Cl)c2)CC1 [(I-20)]
IC50: 0.392 µM

Cc1cnc(CNC(=O)C2CCN(S(=O)(=O)c3cc(Cl)cc(Cl)c3)CC2)s1 [(I-27)]
IC50: 0.341 µM

CCOc1cc(Cl)cc(S(=O)(=O)N2CCC(C(=O)NCc3nccs3)CC2)c1 [(I-49)]
IC50: 0.154 µM

Cc1cc(Br)cc(S(=O)(=O)N2CCC(C(=O)NCc3ccccn3)CC2)c1 [(I-61)]
IC50: 0.437 µM

N#Cc1ccc(CNC(=O)C2CCN(S(=O)(=O)c3cc(Cl)cc(Cl)c3)CC2)cc1 [Example (I-1)]
IC50: 0.079 µM

From US10793522B2, “Sulfonamides as inhibitors of the uptake of extracellular citrate” (Boehringer Ingelheim International GmbH, priority 2016, dated 2020)
